“Also recorded” adds a separate entry of the source. Structures can show the parent of a compound that is named as a salt.
Legend:
SKOV3ip-GFP cells [1] = assay: Two-week intraperitoneal tumor growth model (tumor burden); assay type: in vivo, mice; conditions: 1 mg/kg twice daily oral, 14 days, vs placebo
Description: For two-week tumor studies, 1 × 10^6 non-treated SKOV3ip-GFP cells were i.p. injected. All mice started R-ketorolac treatment one day prior to cell injection and continued treatment until conclusion of the study 14 days later. Mice were imaged using a Light Tools imaging system (Synopsys Optical Solutions, Westminster CO) with long pass GFP filters. Three images per mouse were captured to ensure all tumors were counted. Green fluorescent tumors were identified and counted in the peritoneal cavity as single tumors if there was a distinct border of non-fluorescent tissue. Tumor burden of the omentum occurred either as one large tumor or a bundle of tumors and was not included in the final analysis of tumor number. Total tumor counts from the peritoneal cavity were normalized to placebo treated animals within individual experiments. Blood was collected via cardiac puncture and ketorolac enantiomer concentrations were measured by HPLC analysis as described in Supplemental Methods (Additional File 1: Supplemental Methods). […]

SKOV3ip-GFP cells [2] = assay: Measurement of omental weight; assay type: in vivo, mice; conditions: two-week tumor study, 1 mg/kg twice daily; no significant differences between groups
Description: page 1: SUPPLEMENTAL METHODS Cell Culture and Reagents SKOV3ip cells were modified to express GFP-Rac1 by transfection with pcDNA3-EGFP-Rac1- wt (Catalog # 12980, Addgene) as described for SKOV3ip-GFP cells under Methods. Rac1 overexpression quantification and verification was completed by western blot and qPCR. SKOV3ip-GFP and SKOV3ip-GFP-Rac1 cell populations were further enriched by flow sorting for GFP positive cells. SKOV3ip-GFP-Rac1 cell lines were maintained under the same selection as described for SKOV3ip-GFP cells (Methods). In vivo Drug Dosing Racemic (R-/S-) ketorolac tromethamine salt was purchased from Sigma (St. Louis MO, cat# K1136), S-ketorolac was purchased from Toronto Research Chemicals (Toronto Canada, cat# K235602) and dissolved in water or 100% ethanol, respectively . Mice received twice daily […] mg/kg of body weight. Measurement of Omental Weight Omental tissue was harvested and stored on ice in PBS for no more than 1 hour before analysis. Omenta were blotted dry on lab tissue and weight was measured using an analytical balance (Denver Instruments Company, A -160). There was a non-significant decreasing trend in omental weight for treated mice when compared to placebo mice ( Additional File 3: Table S1). […] Ketorolac was detected using a UV spectrometer set at UV310. […]

Cdc42 = target: T1, Cdc42 (Homo sapiens, UniProt P60953); assay: Flow cytometric GTPase effector binding assay in tumor lysates (Cdc42); assay type: in vivo; conditions: oral 1 mg/kg twice daily, 2 weeks; vs placebo
T1 construct: Frozen tumor samples were lysed without thawing; from tissue; host or cells: peritoneal SKOV3ip-GFP xenograft tumours from treated mice
Experimental: (§1) GTPase effector binding assays were carried out according to the protocols described previously. Frozen tumor samples were lysed without thawing with the addition of RIPA lysis buffer with the following modifications (no β-glycerphosphate,1 mM NaF and protease, 1% (v/v) NP-40 (nonyl phenoxypolyethoxylethanol) inhibitors consisting 10 μg/ml each of chymostatin, leupeptin, pepstatin and antipain). Protein concentrations were determined using GLISA quick protein concentration kit and lysates were adjusted to uniform protein concentrations of 0.5 mg/ml. Insoluble debris was removed by centrifugation at 14,000 RPM in a cold microfuge and the supernatants were incubated with GTPase effector coated beads (PAK1-PBD for Cdc42 and Rac1) for 1 h at 4 °C with rotation. Primary antibodies directed against Cdc42 or Rac1 and secondary antibody Alexa 488 were incubated with the beads for 1 h. Fluorescence intensity MCF (mean channel fluorescence) was used to measure the amount of active intracellular GTPase. MCF was measured by flow cytometry (Accuri C6, BD Biosciences). GTPase activity was calculated as (MCFsample group – MCFunstimulated negative control) / MCFstimulated positive control.

Rac1 = target: T2, Rac1 (Homo sapiens, UniProt P63000); assay: Flow cytometric GTPase effector binding assay in tumor lysates (Rac1); assay type: in vivo; conditions: oral 1 mg/kg twice daily, 2 weeks; vs placebo
T2 construct: Frozen tumor samples were lysed without thawing; from tissue; host or cells: peritoneal SKOV3ip-GFP xenograft tumours from treated mice
Experimental: as §1

T1 sequence (P60953 whole entry): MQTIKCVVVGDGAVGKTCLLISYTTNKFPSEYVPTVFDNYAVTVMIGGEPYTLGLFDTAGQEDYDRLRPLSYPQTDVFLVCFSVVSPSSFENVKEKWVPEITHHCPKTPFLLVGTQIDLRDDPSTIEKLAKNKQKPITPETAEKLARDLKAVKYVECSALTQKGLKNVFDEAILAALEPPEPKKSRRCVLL

Compound | Tumor burden (tumor implants within the peritoneal cavity) (SKOV3ip-GFP cells [1]) | Omental weight, Mean ± SD (SKOV3ip-GFP cells [2]) [g] | Cdc42 GTPase activity in tumor lysates (Cdc42) | Rac1 GTPase activity in tumor lysates (Rac1) | Tumor burden (tumor implants within the peritoneal cavity) (SKOV3ip-GFP cells [1]; listed as Racemic drug)
O=C(c1ccccc1)c1ccc2n1CC[C@H]2C(=O)O [R-ketorolac] | significantly fewer tumor implants; also recorded: significantly decreased tumor burden | 0.059 ± 0.018 | significantly decreased | significantly decreased | 
O=C(c1ccccc1)c1ccc2n1CCC2C(=O)O (centres unmarked) [R−/S-ketorolac, ketorolac tromethamine salt] |  | 0.058 ± 0.026 | Inhibition of the target GTPases was evident | Inhibition of the target GTPases was evident | significantly decreased tumor burden

— publication PMC7791840, “The R-enantiomer of ketorolac reduces ovarian cancer tumor burden in vivo” (BMC Cancer, 2021)
